Measurements as given in patent US20230241257A1, “BIOTIN-MODIFIED DIMER AND USE THEREOF” (THE UNIVERSITY OF TOKYO, priority 2020, published 2023).

Experiments:
[1] = test system: human stomach cancer cells (MKN-45); test: Experiment 10: therapeutic effects and toxicity of Cupid-scFv antibody (24 h before)+^211At-psyche-B in MKN-45 cancer-bearing mouse models; format: in vivo, mice (BALB/cSlc nu/nu)
Experimental: The present experiment used human stomach cancer cells (MKN-45) expressing carcinoembryonic antigen (CEA). 9-week-old male immunodeficient mice (BALB/cSlc nu/nu) were used. MKN-45 cells (5×10^6/0.1 ml) were transplanted into the mice's subcutis on the right shoulder dorsal side to produce cancer-bearing mouse models. At the time point in which the tumor volume became a predetermined size (on Day 8 after the transplantation), the mice were divided into six groups, which were for use in the evaluation of the therapeutic effects, and a biodistribution group (6 hours) of cancer-bearing mouse models having this tumor size. The Cupid-scFv antibody was administered 100 μmol/0.1 ml via the caudal vein of each mouse. Twenty-four hours after administration of the Cupid-scFv antibody, ^211At-psyche-B was administered via the caudal vein of each mouse in an amount of 3.70 MBq, 1.85 MBq, 1.11 MBq, or 0.37 MBq.
In the present experiment, a 5.55 MBq administration group was not established. To a control group, a solvent for the ^211At-psyche-B was administered (solvent group). A group to which only cupid was administered was defined as a Cupid group. The mice's general states were observed and recorded immediately after administration of the ^211At-psyche-B and at 3 hours after the administration. Moreover, until Day 14, after administration of the ^211At-psyche-B, observation of the general states and the measurement of the body weight was carried out every day. After Day 14 of the administration of the […], observation of the general states and the measurement of the body weight was carried out every other day. The tumor size was measured every other day after the treatment with the ^211At-psyche-B. On Day 36, after the treatment with the ^211At-psyche-B, observation of the general states, the measurement of the body weight, and the measurement of the tumor size were carried out, and the mice were then euthanized by collecting whole blood from the heart of each mouse under isoflurane anesthesia. Tumor tissues and major tissues/organs were excised from the mice, weighed, and immobilized with formalin.

[2] = test system: human stomach cancer cells (MKN-45); test: Experiment 6: pharmacokinetics of Cupid-scFv antibody (48 h before)+^211At-psyche-BR in MKN-45 cancer-bearing mouse models; format: in vivo, mice (BALB/cSlc nu/nu)
Experimental: The present experiment used human stomach cancer cells (MKN-45) expressing carcinoembryonic antigen (CEA). 9-week-old male immunodeficient mice (BALB/cSlc nu/nu) were used. MKN-45 cells (1×10^7/0.1 ml) were transplanted into the mice's subcutis on the right shoulder dorsal side to produce cancer-bearing mouse models. The mice were divided into four groups when the tumor volume became a predetermined size (on Day 12 after the transplantation), and the Cupid-scFv antibody was administered 100 μmol/0.1 ml via the caudal vein of each mouse. Forty-eight hours after administration of the Cupid-scFv antibody, […] (about 0.25 MBq/100 ml) was administered via the caudal vein of each mouse. One minute, 1 hour, 6 hours, and 24 hours after administration of the ^211At-psyche-BR, the mice were euthanized by collecting whole blood from the heart of each mouse under isoflurane anesthesia, and tumor tissues and normal tissues/organs were then excised. Normal tissues/organs: skin (lower right limb), muscle (right gastrocnemius muscle), heart, lung, spleen, pancreas, white fat (upper portion of right side testis), testis (both sides), stomach, stomach contents, small intestine (not including contents), large intestine (not including contents), liver, brown fat (interscapular), submandibular gland, thyroid gland (together with trachea), bone (right femur), cerebrum, eyeballs (both sides), bladder, and urine; the remaining residues were divided into three equal parts, and the three equal parts were defined to be residue-1, residue-2, and residue-3. After that, the weights of blood, plasma, urine, tumor, and normal tissues/organs were measured, and the radioactivity thereof was then measured using a γ counter. The amounts of the ^211At-psyche-BR (radioactivity) accumulated in the blood, plasma, urine, tumor, and normal tissues/organs were calculated. That is to say, the rates (% ID/g) of the ^211At-psyche-BR accumulated per unit weight (g) of the blood, plasma, urine, tumor, and normal tissues/organs, in the administered ^211At-psyche-BR were shown. Regarding accumulation of the ^211At-psyche-BR in the thyroid gland, since the weight of the thyroid gland could not be precisely measured, it was shown that the rate (% ID) of the ^211At-psyche-BR accumulated in the thyroid gland in the administered ^211At-psyche-BR.

## N=C1N[C@H]2[C@H](CS[C@H]2CCCCC(=O)NCCCCCC(=O)Nc2cc(NC(=O)CCCCCNC(=O)CCCC[C@@H]3SC[C@@H]4NC(=N)N[C@@H]43)cc(C(=O)NCCOCCOCCNC(=O)c3cccc([211At])c3)c2)N1 [^211At-psyche-B]
[1]; 0.37 MBq, before Day 10
  body weight reduction: body weight reduction was lower than that in the 1.11 MBq
[1]; 0.37 MBq, on and after Day 10
  body weight reduction: the body weight reduction was the same as in the 1.11 MBq
[1]; 0.37 MBq, until Day 10
  tumor growth compared with the control group: tumor growth was suppressed
[1]; 1.11 MBq, after Day 5
  body weight recovery: the body weight was not recovered to the same level as the control groups
[1]; 1.11 MBq, until Day 5
  body weight: the body weight was slightly reduced
[1]; 1.11 MBq, until Day 10
  tumor growth compared with the control group: tumor growth was suppressed
[1]; 1.85, 1.11 and 0.37 MBq, after Day 10
  tumor growth compared with the control group: the tumor growth was suppressed in an amount-dependent manner
[1]; 1.85 MBq, Day 5
  general states and body weight: general states and body weight reduction became significantly severe
[1]; 1.85 MBq, Day 10
  mortality: one mouse died
[1]; 1.85 MBq, Day 26
  recovery of general states: the mice were completely recovered
[1]; 1.85 MBq, on and after Day 6 until Day 12
  skin findings: red spots were dispersed on the skin
[1]; 1.85 MBq, until Day 10
  tumor growth compared with the control group: tumor growth was suppressed
[1]; 3.70 MBq, Day 5, urgent euthanasia
  general states and body weight: general states and body weight reduction became severe

## N=C1N[C@H]2[C@H](CS[C@H]2CCCCNC(=O)CCCCCC(=O)Nc2cc(NC(=O)CCCCCC(=O)NCCCC[C@@H]3SC[C@@H]4NC(=N)N[C@@H]43)cc(C(=O)NCCOCCOCCNC(=O)c3cccc([211At])c3)c2)N1 [^211At-psyche-BR]
[2]; after 1 minute
  Accumulation in the blood: 26.4±2.7 % ID/g
  Accumulation in the kidney: 81.7±11.8 % ID/g
  Accumulation in the liver: 31.5±4.3 % ID/g
  Accumulation in the lung: 9.5±0.4 % ID/g
  Accumulation in the spleen: 3.4±0.2 % ID/g
  Accumulation in the tumor: 0.5±0.0 % ID/g
  tumor-to-blood ratio: 0.02±0.00
  tumor-to-muscle ratio: 1.30±0.06
[2]; after 1 hour
  Accumulation in the blood: 30.6±3.2 % ID/g
  Accumulation in the kidney: 54.5±4.0 % ID/g
  Accumulation in the liver: 19.8±1.3 % ID/g
  Accumulation in the lung: 12.7±0.6 % ID/g
  Accumulation in the spleen: 6.8±0.3 % ID/g
  Accumulation in the tumor: 3.2±0.5 % ID/g
  tumor-to-blood ratio: 0.10±0.01
  tumor-to-muscle ratio: 5.13±0.67
[2]; after 6 hours
  Accumulation in the blood: 22.7±2.7 % ID/g
  Accumulation in the kidney: 15.0±2.3 % ID/g
  Accumulation in the liver: 18.7±2.7 % ID/g
  Accumulation in the lung: 7.5±3.3 % ID/g
  Accumulation in the spleen: 9.7±1.0 % ID/g
  Accumulation in the tumor: 9.3±1.4 % ID/g
  tumor-to-blood ratio: 0.42±0.11
  tumor-to-muscle ratio: 11.42±1.05
[2]; after 24 h
  Accumulation in the thyroid gland: 0.19±0.03 % ID
[2]; after 24 hours
  Accumulation in the blood: 1.6±1.0 % ID/g
  Accumulation in the kidney: 5.6±1.0%
  Accumulation in the liver: 8.9±1.7%
  Accumulation in the lung: 2.9±0.3%
  Accumulation in the spleen: 4.6±1.6%
  Accumulation in the tumor: 7.4±2.3%
  administered amount excreted (blood): about 98%
  tumor-to-blood ratio: 5.39±1.56
  tumor-to-muscle ratio: 27.98±2.34
